The source of these data is patent US6638945B1, “Quinoline derivatives as inhibitors of MEK enzymes” (AstraZeneca AB, priority 1999, dated 2003).

The assay has as its target human p45MEK1 (GST-MEK) (Homo sapiens, UniProt Q02750). The assay is described as follows: Assay for inhibitors of the MAP kinase pathway (coupled GST-MEK/GST-MAPK/MBP 33P assay). As to conditions: GST-MEK activated by c-raf, 33P incorporation into myelin basic protein. The format is biochemical. How it is done: Assay for inhibitors of the MAP kinase pathway
To evaluate inhibitors of the MAPK pathway a coupled assay was carried out which measures phosphorylation of serine/threonine residues present in the substrate in the presence or absence of inhibitor. Recombinant glutathione S-transferase fusion protein containing human p45MEK1 (GST-MEK) was activated by c-raf (Sf9 insect cell lysate from triple baculoviral infection with c-raf/ras/lck) and used for the assay. Active GST-MEK was first used to activate a recombinant glutathione S-transferase fusion protein containing p44MAP kinase (GST-MAPK) in the presence of ATP and Mg^2+ for 60 min at room temperature in the presence or absence of potential inhibitors. The activated GST-MAPK was then incubated with myelin basic protein (MBP) as substrate for 10 min at room temperature in the presence of ATP, Mg^2+ and ^33P-ATP. The reaction was stropped by addition of 20% v/v phosphoric acid. Incorporation of ^33P into the myelin basic protein was determined by capture of the substrate on a filter mat, washing and counting using scintillation methods. The extent of inhibition was determined by comparison with untreated controls.
The final assay solution contained 10 mM Tris, pH 7.5, 0.05 mM EGTA, 8.33 μM [γ^33P]ATP, 8.33 mM Mg(OAc)2, 0.5 mM sodium orthovanadate, 0.05% w/v BSA, 6.5 ng GST-MEK, 1 μg GST-MAPK and 16.5 μg MBP in a reaction volume of 60 μl.

Chain of human p45MEK1 (GST-MEK) (Q02750 whole entry, the tested form may be a part): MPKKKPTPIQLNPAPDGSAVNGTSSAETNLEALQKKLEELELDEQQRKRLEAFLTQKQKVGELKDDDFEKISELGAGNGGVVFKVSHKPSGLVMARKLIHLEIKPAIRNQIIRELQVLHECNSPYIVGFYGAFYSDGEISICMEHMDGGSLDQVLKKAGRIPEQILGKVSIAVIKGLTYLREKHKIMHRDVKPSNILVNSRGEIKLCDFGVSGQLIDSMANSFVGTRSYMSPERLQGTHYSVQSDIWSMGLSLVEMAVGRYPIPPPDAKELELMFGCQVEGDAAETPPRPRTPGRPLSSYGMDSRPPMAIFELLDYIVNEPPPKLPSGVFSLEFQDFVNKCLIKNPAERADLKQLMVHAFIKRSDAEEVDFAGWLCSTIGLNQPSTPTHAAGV

For the compound `COc1cc2ncc(F)c(Nc3ccc(Oc4ccccc4)cc3)c2cc1OC` [Compound No 5], the half-maximal inhibitory concentration (IC50) – broadly, the concentration that gives 50% inhibition – is 0.55 µM. That is a sub-micromolar value.
